By MIC is commonly meant the lowest concentration found to suppress growth. One may read the MIC90 as the lowest concentration that inhibits either 90% of growth or 90% of the strains tested, depending on the study.

Each structure is given as a SMILES string. Values after ≈ are worked out from the molar mass of the structure shown.

Chain of UDP-galactose mutase (Glf) (P9WIQ1 whole entry): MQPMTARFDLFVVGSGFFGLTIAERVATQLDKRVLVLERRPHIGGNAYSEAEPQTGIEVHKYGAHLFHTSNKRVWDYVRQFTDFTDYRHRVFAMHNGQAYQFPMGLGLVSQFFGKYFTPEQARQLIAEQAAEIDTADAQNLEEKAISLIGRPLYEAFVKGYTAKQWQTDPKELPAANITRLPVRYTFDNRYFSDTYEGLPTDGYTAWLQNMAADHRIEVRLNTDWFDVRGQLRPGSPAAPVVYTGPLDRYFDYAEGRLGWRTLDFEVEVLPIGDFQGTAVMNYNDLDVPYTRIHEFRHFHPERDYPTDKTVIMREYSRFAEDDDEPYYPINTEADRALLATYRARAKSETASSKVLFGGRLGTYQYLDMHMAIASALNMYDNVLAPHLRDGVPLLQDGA

The first data set addresses UDP-galactose mutase (Glf) (Mycobacterium tuberculosis, UniProt P9WIQ1). The experiment in a line: microtitre plate based screen of Glf (enzymatic inhibition). Format: biochemical. As to conditions: in words.
Take `O=C(Nc1cccc(Cl)c1)c1ccc([N+](=O)[O-])o1` [Compound 10, 5-Nitro-furan-2-carboxylic acid(3-chloro-phenyl)-amide]: the “enzymatic inhibition of Glf” value is on record as “best inhibitors of GIf”.

Consider `COc1cccc(NC(=O)c2ccc([N+](=O)[O-])o2)c1` [Compound 13, 5-Nitro-furan-2-carboxylic acid(3-methoxy-phenyl)-amide], for which the “enzymatic inhibition of Glf” value is recorded as “best inhibitors of GIf”.

Test system in another data set: not listed separately
Description: Maximum Tolerated Dose (MTD), single oral dose. The note with it: mice, oral gavage, escalating dose 100, 300 and 500 mg/kg. The protocol: An assay for Maximum Tolerated Dose (MTD) was also utilized. […] Three different concentrations are tested, generally at 100, 300 and 500 mg/kg. The latter dose is about twice to five times the dose used for efficacy testing of the compound in mice. After 7 days of observation the mice are sacrificed and the organs are studied for any adverse effects. In case of abnormalities the organs are fixed in formalin and given for extensive pathology analysis.
Maximum tolerated dosing was performed on these selected compounds. An escalating dose of drug (100, 300 and 500 mg/kg) was given to mice by oral gavage.
With `O=C(Nc1cccc(Cl)c1)c1ccc([N+](=O)[O-])o1` [Compound 10, 5-Nitro-furan-2-carboxylic acid(3-chloro-phenyl)-amide], the “maximum tolerated dosing, observed effect” value (“maximum tolerated dosing” below) is “no effect at the maximum dose”.

As for `O=C(Nc1cccc(F)c1)c1ccc([N+](=O)[O-])o1` [Compound 12, 5-Nitro-furan-2-carboxylic acid(3-fluoro-phenyl)-amide], the “maximum tolerated dosing” value is listed as “no effect at the maximum dose”.

With `COc1cccc(NC(=O)c2ccc([N+](=O)[O-])o2)c1` [Compound 13, 5-Nitro-furan-2-carboxylic acid(3-methoxy-phenyl)-amide], the “maximum tolerated dosing” value is recorded as “some pathology at 500 mg/kg”.

Regarding `COc1ccc(CNC(=O)c2ccc([N+](=O)[O-])o2)cc1OC` [Compound 23, 5-Nitro-furan-2-carboxylic acid 3,4-dimethoxy-benzylamide], the “maximum tolerated dosing” value is “no effect at the maximum dose”.

The test system of the next data set is M. tuberculosis.
Test: not given
Format: in vivo, mice. The note with it: in words.
With `COc1ccc(CNC(=O)c2ccc([N+](=O)[O-])o2)cc1OC` [Compound 23, 5-Nitro-furan-2-carboxylic acid 3,4-dimethoxy-benzylamide], the “oral activity against M. tuberculosis in the mouse infection model” value was “significant oral activity”.

The subject of another data set is M. tuberculosis H37Ra. The experiment in a line: MIC against M. tuberculosis H37Ra, micro broth dilution in microtiter plates. As to conditions: Mycobacterium tuberculosis, H37RA.
As for `COc1ccc(CNC(=O)c2ccc([N+](=O)[O-])o2)cc1OC` [Compound 23, 5-Nitro-furan-2-carboxylic acid 3,4-dimethoxy-benzylamide], the lowest concentration to inhibit growth (MIC) was 200 µg/mL (≈ 653 µM).

Regarding `CN1CCN(C(=O)c2ccc([N+](=O)[O-])o2)CC1` [Compound 76], the MIC was 37.5 µg/mL (≈ 157 µM).

`NNC(=O)c1ccncc1` [Isoniazid, isoniazid, reference compound] yielded an MIC90 of 0.05 µg/mL (≈ 0.365 µM).

In turn, `CC[C@@H](CO)NCCN[C@@H](CC)CO` [ethambutol, reference compound] yielded an MIC90 of 0.78 µg/mL (≈ 3.82 µM).

The same data set, now with this note: Mycobacterium tuberculosis, H37RA, 168 h, read-out: TB MIC, Table 1; M. tuberculosis H37Ra, 7 days, MIC90 (>90% inhibition of growth).
On to `COc1ccc(CNC(=O)c2ccc([N+](=O)[O-])o2)cc1OC` [Compound 23, 5-Nitro-furan-2-carboxylic acid 3,4-dimethoxy-benzylamide], for which the minimal inhibitory concentration (MIC) turned out to be 0.2 µg/mL (≈ 0.653 µM).

The same data set, now with this note: Mycobacterium tuberculosis, H37RA, Table 4; M. tuberculosis H37Ra, MIC90.
`O=C(NCc1cccc(N2CCN(Cc3ccccc3)CC2)c1)c1ccc([N+](=O)[O-])o1` [Compound 69, 5-Nitro-furan-2-carboxylic acid 3-(4-benzyl-piperazin-1-yl)-benzylamide] showed an MIC of under 0.1 µg/mL.

`O=C(NCc1cccc(N2CCC(Cc3ccccc3)CC2)c1)c1ccc([N+](=O)[O-])o1` [Compound 70, 5-Nitro-furan-2-carboxylic acid 3-(4-benzyl-piperidin-1-yl)-benzylamide]: the MIC turned out to be 0.0062 µg/mL (≈ 0.0148 µM).

For `O=C(c1ccc([N+](=O)[O-])o1)N1Cc2ccccc2C1` [Compound 71], the MIC turned out to be 0.78 µg/mL (≈ 3.02 µM).

Staying with this data set, now noted: Mycobacterium tuberculosis, H37RA, Table 5; M. tuberculosis H37Ra, MIC90.
In turn, `O=C(c1ccc([N+](=O)[O-])o1)N1CCC(Cc2ccccc2)CC1` [Compound 72] gave an MIC of 0.29 µg/mL (≈ 0.923 µM).

In the case of `O=C(c1ccc([N+](=O)[O-])o1)N1CCN(Cc2ccccc2)CC1` [Compound 73], the MIC was determined as 0.59 µg/mL (≈ 1.87 µM).

`O=C(NCc1ccc2c(c1)OCO2)c1ccc([N+](=O)[O-])o1` [Compound 74]: inhibition of growth (MIC) required 0.15 µg/mL (≈ 0.517 µM).

`COc1cc2c(cc1OC)CN(C(=O)c1ccc([N+](=O)[O-])o1)CC2` [Compound 75]: it took 0.15 µg/mL (≈ 0.451 µM) to inhibit growth (MIC).

Regarding `CN1CCN(C(=O)c2ccc([N+](=O)[O-])o2)CC1` [Compound 76], the minimal inhibitory concentration (MIC) worked out at 37.5 µg/mL (≈ 157 µM).

As for `CC(C)NC(=O)CN1CCN(C(=O)c2ccc([N+](=O)[O-])o2)CC1` [Compound 78], the MIC turned out to be 6.25 µg/mL (≈ 19.3 µM).

The compound `O=C(c1ccc([N+](=O)[O-])o1)N1CCC(O)(Cc2ccccc2)CC1` [Compound 79] showed an MIC of 1.56 µg/mL (≈ 4.72 µM).

`O=C(c1ccc([N+](=O)[O-])o1)N1CCN(C2CCCCC2)CC1` [Compound 80] gave an MIC of 6.25 µg/mL (≈ 20.3 µM).

Consider `COc1ccccc1N1CCN(C(=O)c2ccc([N+](=O)[O-])o2)CC1` [Compound 82], for which 1.56 µg/mL (≈ 4.71 µM) was the least that counted as inhibitory (MIC).

Consider `O=C(c1ccc([N+](=O)[O-])o1)N1CCN(Cc2cccc(O)c2)CC1` [Compound 83], for which the MIC is 0.8 µg/mL (≈ 2.41 µM).

In turn, `O=C(c1ccc([N+](=O)[O-])o1)N1CCN(Cc2ccc(O)cc2)CC1` [Compound 84] returned an MIC of 1.56 µg/mL (≈ 4.71 µM).

`COc1ccc(CN2CCN(C(=O)c3ccc([N+](=O)[O-])o3)CC2)cc1` [Compound 85] had a minimum inhibitory concentration (MIC) of under 0.1 µg/mL.

For `COc1cccc(CN2CCN(C(=O)c3ccc([N+](=O)[O-])o3)CC2)c1` [Compound 86], the MIC worked out at 1.56 µg/mL (≈ 4.52 µM).

Consider `O=C(c1ccc([N+](=O)[O-])o1)N1CCN(Cc2cccc(OCc3ccccc3)c2)CC1` [Compound 87], for which the MIC is 1.56 µg/mL (≈ 3.7 µM).

`CCN(CC)c1ccc(CN2CCN(C(=O)c3ccc([N+](=O)[O-])o3)CC2)cc1` [Compound 88] came in with an MIC of under 0.1 µg/mL.

On to `COc1ccc(CN2CCN(C(=O)c3ccc([N+](=O)[O-])o3)CC2)c(OC)c1` [Compound 89], for which the MIC was under 0.1 µg/mL.

In turn, `CC(=O)c1ccc(N2CCN(C(=O)c3ccc([N+](=O)[O-])o3)CC2)cc1` [Compound 91] registered a minimal inhibitory concentration (MIC) of under 10.1 µg/mL.

Staying with this data set, now noted: Mycobacterium tuberculosis, H37RA, Table 6; M. tuberculosis H37Ra, MIC90.
`O=C(NCc1ccc(N2CCSCC2)cc1)c1ccc([N+](=O)[O-])o1` [Compound 92, 5-Nitro-furan-2-carboxylic acid 4-thiomorpholin-4-yl-benzylamide] had an MIC of 0.05 µg/mL (≈ 0.144 µM).

Compound `NC1CCN(c2ccc(CNC(=O)c3ccc([N+](=O)[O-])o3)cc2)C1` (stereo not drawn) [Compound 95, 5-Nitro-furan-2-carboxylic acid 4-(3-amino-pyrrolidin-1-yl)-benzylamide] showed an MIC of 0.8 µg/mL (≈ 2.42 µM).

As for `CC(C)(C)OC(=O)N1CCN(c2ccc(CNC(=O)c3ccc([N+](=O)[O-])o3)cc2)CC1` [Compound 96, 4-(4-{[(5-Nitro-furan-2-carbonyl)-amino]-methyl}-phenyl)-piperazine-1-carboxylic acid tert-butyl ester], the MIC is 0.0002 µg/mL (≈ 0.000465 µM).

Compound `O=C(NCc1ccc(N2CCNCC2)cc1)c1ccc([N+](=O)[O-])o1` [Compound 97, 5-Nitro-furan-2-carboxylic acid 4-piperazin-1-yl-benzylamide] displayed an MIC of 0.8 µg/mL (≈ 2.42 µM).

As for `O=C(NCc1ccc(N2CCN(CC3CC3)CC2)cc1)c1ccc([N+](=O)[O-])o1` [Compound 98, 5-Nitro-furan-2-carboxylic acid 4-(4-cyclopropylmethyl-piperazin-1-yl)-benzylamide], it took 0.05 µg/mL (≈ 0.13 µM) to inhibit growth (MIC).

`O=C(NCc1ccc(N2CCN(Cc3ccccc3)CC2)c(F)c1)c1ccc([N+](=O)[O-])o1` [Compound 99, 5-Nitro-furan-2-carboxylic acid 4-(4-benzyl-piperazin-1-yl)-3-fluoro-benzylamide]: the MIC is 0.0125 µg/mL (≈ 0.0285 µM).

Take `CN1CCN(c2ccc(CNC(=O)c3ccc([N+](=O)[O-])o3)cc2F)CC1` [Compound 100, 5-Nitro-furan-2-carboxylic acid 3-fluoro-4-(4-methyl-piperazin-1-yl)-benzylamide]: the MIC turned out to be 0.4 µg/mL (≈ 1.1 µM).

`O=C(NCc1ccc(N2CCSCC2)c(F)c1)c1ccc([N+](=O)[O-])o1` [Compound 101, 5-Nitro-furan-2-carboxylic acid 3-fluoro-4-thiomorpholin-4-yl-benzylamide] gave an MIC of 0.2 µg/mL (≈ 0.547 µM).

As for `O=C(NCc1ccc(N2CCOCC2)c(F)c1)c1ccc([N+](=O)[O-])o1` [Compound 102, 5-Nitro-furan-2-carboxylic acid 3-fluoro-4-morpholin-4-yl-benzylamide], the MIC turned out to be 0.2 µg/mL (≈ 0.573 µM).

Regarding `O=C(NCc1ccc(N2CCC(Cc3ccccc3)CC2)c(F)c1)c1ccc([N+](=O)[O-])o1` [Compound 103, 5-Nitro-furan-2-carboxylic acid 4-(4-benzyl-piperidin-1-yl)-3-fluoro-benzylamide], the minimal inhibitory concentration (MIC) came out at 0.0125 µg/mL (≈ 0.0286 µM).

As to `CCOC(=O)N1CCN(c2ccc(CNC(=O)c3ccc([N+](=O)[O-])o3)cc2)CC1` [Compound 104, 4-(4-{[(5-Nitro-furan-2-carbonyl)-amino]-methyl}-phenyl)-piperazine-1-carboxylic acid ethyl ester], the MIC was 0.004 µg/mL (≈ 0.00994 µM).

As for `CCCNC(=O)N1CCN(c2ccc(CNC(=O)c3ccc([N+](=O)[O-])o3)cc2)CC1` [Compound 105, 4-(4-{[(5-Nitro-furan-2-carbonyl)-amino]-methyl}-phenyl)-piperazine-1-carboxylic acid propylamide], the minimal inhibitory concentration (MIC) stood at 0.0125 µg/mL (≈ 0.0301 µM).

`CC(C)NC(=O)N1CCN(c2ccc(CNC(=O)c3ccc([N+](=O)[O-])o3)cc2)CC1` [Compound 106, 4-(4-{[(5-Nitro-furan-2-carbonyl)-amino]-methyl}-phenyl)-piperazine-1-carboxylic acid isopropylamide]: it took 0.0062 µg/mL (≈ 0.0149 µM) to inhibit growth (MIC).

The same data set, now with this note: Table 5; M. tuberculosis H37Ra, MIC90.
As to `O=C(c1ccc([N+](=O)[O-])o1)N1CCN(c2ncccn2)CC1` [Compound 77], the MIC was 0.025 µg/mL (≈ 0.0824 µM).

On to `O=C(c1ccc([N+](=O)[O-])o1)N1CCN(c2ncccn2)CC1` [Compound 81], for which the MIC was 0.1 µg/mL (≈ 0.33 µM).

The data set is the same for the next values; noted with them: against H37Ra; in words.
For `COc1ccc(CNC(=O)c2ccc([N+](=O)[O-])o2)cc1OC` [Compound 23, 5-Nitro-furan-2-carboxylic acid 3,4-dimethoxy-benzylamide], the “MIC activity compared with classical TB drugs (FIG. 1)” value was “as active as ethambutol and streptomycin”.

The values are drawn from patent US20050026968A1, “Heterocyclic amides with anti-tuberculosis activity” (priority 2003, published 2005).
